Assay in all cases: relative viability (nuclei count vs DMSO), 5 days (fraction); higher = more cells survive
Compound in the experiment “Bortezomib + Decitabine”: CC(C)C[C@H](NC(=O)[C@H](Cc1ccccc1)NC(=O)c1cnccn1)B(O)O [Bortezomib] + Nc1ncn([C@H]2C[C@H](O)[C@@H](CO)O2)c(=O)n1 [Decitabine] (partner 2 µM)
In short, it runs like this: (§1)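 Lung cancer cell lines in 1536-well plates got either a single drug or a fixed anchor-drug dose together with five library-drug doses (not always all listed) in √10 steps, by pin tool, on the day after seeding. Nuclei were counted after 5 days, and relative viability is the treated-to-vehicle ratio of nuclei counts. Values are medians of duplicate plates.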

Compound in experiment [1]: CC1=CC(=NN1)NC2=CC(=NC(=N2)/C=C/C3=CC=CC=C3)N4CCN(CC4)C + CS(=O)(=O)CCNCc1ccc(-c2ccc3ncnc(Nc4ccc(OCc5cccc(F)c5)c(Cl)c4)c3c2)o1 [Lapatinib] (partner 2 µM)
The method in brief: as §1

Compound in experiment [2]: CC1=CC(=NN1)NC2=CC(=NC(=N2)/C=C/C3=CC=CC=C3)N4CCN(CC4)C + Nc1nc2[nH]cc(CCc3ccc(C(=O)N[C@@H](CCC(=O)O)C(=O)O)cc3)c2c(=O)[nH]1 [Pemetrexed] (partner 0.2 µM)
The method in brief:
as §1

Compound in the experiment “Obatoclax + Trametinib”: COC1=CC(c2cc3ccccc3[nH]2)=N/C1=C\c1[nH]c(C)cc1C [Obatoclax] + CC(=O)Nc1cccc(-n2c(=O)n(C3CC3)c(=O)c3c(Nc4ccc(I)cc4F)n(C)c(=O)c(C)c32)c1 [Trametinib] (partner 0.02 µM)
In short, it runs like this:
as §1

As to NCI-H650, the relative viability with Bortezomib + Decitabine (first compound 0.0002 µM) was 0.332; with Bortezomib + Decitabine (first compound 0.000632 µM), 0.347; with Bortezomib + Decitabine (first compound 0.002 µM), 0.286; with Bortezomib + Decitabine (first compound 0.006325 µM), 0.216; with Bortezomib + Decitabine (first compound 0.02 µM), 0.147; in experiment [1] (first compound 0.08 µM) it was 0.804. For the same cell line, the relative viability in experiment [1] (first compound 0.253 µM) turned out to be 1.15; in experiment [1] (first compound 0.8 µM), 0.839; in experiment [1] (first compound 2.53 µM) it was 0.378; in experiment [1] (first compound 8 µM), 0.271; in experiment [2] (first compound 0.08 µM), 1.01; in experiment [2] (first compound 0.253 µM), 1.08. The relative viability came to 1.01 in experiment [2] (first compound 0.8 µM); 0.727 in experiment [2] (first compound 2.53 µM); 0.307 in experiment [2] (first compound 8 µM); 0.888 with Obatoclax + Trametinib (first compound 0.01 µM); 1.02 with Obatoclax + Trametinib (first compound 0.03162 µM); 0.373 with Obatoclax + Trametinib (first compound 0.3162 µM). Further, the relative viability in the experiment with Obatoclax + Trametinib (first compound 1 µM) was found to be 0.625.

The values above are taken from the supplement of paper PMC10307832.
